Measurements as given in US11065296B2, “Antimicrobial peptide, its analog and use” (City University of Hong Kong, priority 2018, dated 2021).
Entries after “also recorded” stand apart in the source; their conditions may differ. Peptide text beside a SMILES is read from it.

Columns and labels:
[1] = tested on: Streptococcus pyogenes ATCC 14289; assay type: cell-based
Procedure: (§5) MIC denotes the lowest concentration of an antimicrobial agent that can inhibit the growth of bacteria after overnight incubation.
(§6) Bacteria were grown in their respective media (Table 2 above) overnight at 37° C. or room temperature with constant shaking and then diluted to 10^6 CFU/ml in their respective medium. Stock solutions of peptides at 0.68 mM were prepared in distilled water. Bacteria and peptide were incubated (50 μl: 50 μl) to make the final peptide concentrations (0.68, 3.4, 6.8, 13.7, 34.1, 68.3, 136.5 μM) in a 96-microtitre plate and incubated for 24 h with constant shaking. […] Absorbance at 600 nm was detected every 3 h up to 24 h to obtain the growth curves. The minimal inhibition concentration (MIC) was defined as the lowest concentration of an antimicrobial agent that could inhibit the growth of bacteria after overnight incubation.

[2] = tested on: Staphylococcus aureus ATCC 6538; assay type: cell-based
Procedure: as §5, §6

[3] = tested on: Staphylococcus aureus ATCC 29213; assay type: cell-based
Procedure: as §5, §6

E. tarda [4] = assay: Host resistance assay, Experiment Two: pre-injection 2 h before bacteria; assay type: in vivo, Medaka; conditions: injected 2 h prior to E. tarda
Procedure: (§1) FIG. 11A is a plot showing the effect of Peptide A on viability of cultured mammalian cells, incubated for 48 h in the presence of Peptide A at different concentrations (μg/ml), as determined by MTT assay. Cell viability represented as peptide treated cell numbers over medium-only control. Statistically significant difference as compared to controls (*: p<0.05, **: p<0.01, n=4). FIG. 11B is a plot showing the ability of Peptide A to protect medaka from lethal challenge of E. tarda ([…]). Medaka was injected with 1 μl of Peptide A (0.68 mM), with 1 μl of E. tarda (10^7 CFU/ml) and Peptide A (0.68 mM) mixture, or with E. tarda alone (1 μl of E. tarda:10^7 CFU/ml). […] 20 fish per group. Log-rank (Mantel-Cox) test was applied for the comparison of survival curves (**: p<0.01).
The efficacy of the synthesized AMP to protect medaka against infection was characterized using host resistance assays with intraperitoneal (i.p.) injection of bacteria using a micro-injection machine (PV820 Pneumatic PicoPump). In Experiment One, 80 medaka fish were used and divided into four groups (20 fish in each group, male, 6 months): (1) Group 1 was injected with only 1 μl of PBS in each fish; (2) Group 2 was injected with only 1 μl of novel AMP (0.68 mM) in each fish; (3) Group 3 was injected with 1 μl of bacteria (at a titer of 5×10^7 CFU/ml); and (4) bacteria and novel AMP were mixed for 5 min and then 1 μl of the mixture was injected into Group 4 (Bacteria: 5×10^7 CFU/ml, AMP: 0.68 mM). In Experiment Two, 60 fish were used and divided into three groups: each fish was injected with 1 μl of PBS, ampicillin (5.7 mM) or Peptide A (1.36 mM). The fish were anesthetized in MS222 for 30 s before microinjection. After two hours, 1 μl of bacteria (5×10^7 CFU/ml) was injected into the fish. All of the fishes were kept under a static condition of 26° C.±1° C., with 14:10 hrs of a light-dark cycle. The water was replaced every two days. The fish were fed three times each day. The number of dead fish was counted on a daily basis until two weeks after the injections.

[5] = tested on: Methicillin-resistant S. aureus ATCC BAA-41; assay type: cell-based
Procedure: as §5, §6

[6] = Toxicity in adult Medaka fish, intraperitoneal injection; assay type: in vivo; conditions: intraperitoneally injected with 1 μg, up to 14 days
Procedure: as §1
(§2) The efficacy of the synthesized AMP to protect medaka against infection was characterized using host resistance assays with intraperitoneal (i.p.) injection of bacteria using a micro-injection machine (PV820 Pneumatic PicoPump). […] The number of dead fish was counted on a daily basis until two weeks after the injections.

[7] = tested on: panel of Gram-positive and Gram-negative bacteria; assay: Antibacterial activity against a panel of bacteria (summary); assay type: cell-based; conditions: including beta-lactam resistant bacteria
Procedure: The antibacterial activity of the Peptide A against a panel of Gram-positive and Gram-negative bacteria (FIG. 5A, 5B and Table 2) was determined.
as §6

[8] = tested on: Multidrug-resistant S. aureus ATCC BAA-44; assay type: cell-based
Procedure: as §5, §6

E. coli = assay type: cell-based
E. cloacae BAA-1143 = assay type: cell-based
Procedure: as §5, §6

[9] = tested on: six mammalian cell lines (HeLa, MDA-MB, MC3T3, MCF7, H1299, and AG06858); assay: In vitro toxicity, 48 hour MTT assay; assay type: cell-based, Human; Mouse; conditions: concentrations close to the MIC for gram-negative bacteria
Procedure: as §1
Mammalian cell lines (Hela, MDA MB, MC3T3, MCF7, H1299, and AG06858) were seeded into 96 well-plates one day before treatment at a density of 3×10^5 cells/ml for a 48 hour MTT assay. The peptides were directly dissolved in the medium to make a 136.5 μM stock. […] The resulting solution was measured by using a microplate reader (BMG Polarstar Optima) at a wavelength of 570 nm. The optical density (OD) values were recorded and cell viability was calculated based on the OD readings normalized to the untreated cells.

RpoE = assay: Quantitative real-time PCR; assay type: cell-based; conditions: E. tarda, 6.8 μM, 1 hr
Description: (§3) Results are expressed as 2^(−Delta Delta C (T)). […] Results are expressed as 2^(−Delta Delta C (T)).
(§4) Each group has 6 biological replicates. […] Gene-specific primers were designed with Primer-BLAST (NCBI).

CpxR [10] = assay: Quantitative real-time PCR; assay type: cell-based; conditions: E. tarda
Description: as §3, §4

CpxR [11] = assay: Quantitative real-time PCR; assay type: cell-based; conditions: E. coli
Description: as §4

E. tarda [12] = assay: Host resistance assay, Experiment One: co-injection of bacteria and peptide; assay type: in vivo, Medaka; conditions: co-injected with Peptide A (0.68 mM, 1 μl) and E. tarda
Procedure: as §1, §2

[13] = tested on: Gram positive (S. aureus) and negative (E. coli) bacteria; assay: Toxicity screen of synthesized shortlisted SCPs against bacteria; assay type: cell-based; conditions: synthesized peptides
Description: Of the remaining SCPs, 1519 (24%) satisfy the CAMP prediction algorithm for AMPs as potential AMPs (FIG. 3). In order to increase the accuracy of prediction, the inventors further limited the shortlisted AMPs to amphipathic and cationic peptides, since they account for the majority of currently known AMPs. There are 430 peptides from the SCP database that satisfied these criteria. To assess the accuracy of the AMP prediction, the inventors synthesized 53 of the shortlisted SCPs and tested their toxicity against both Gram positive (S. aureus) and negative (E. coli) bacteria.

Edwardsiella tarda PE210 = assay type: cell-based
Procedure: as §5, §6

**Q.** Which MICs [1] does the source give for `CC[C@H](C)[C@H](N)C(=O)N[C@@H](CCCNC(=N)N)C(=O)N[C@H](C(=O)N[C@H](C(=O)N[C@@H](CC(C)C)C(=O)N[C@@H](CCCNC(=N)N)C(=O)N[C@@H](C)C(=O)N[C@@H](CCC(N)=O)C(=O)NCC(=O)N[C@@H](C)C(=O)N[C@@H](CC(C)C)C(=O)N[C@@H](CCCCN)C(=O)N[C@H](C(=O)O)[C@@H](C)CC)[C@@H](C)CC)[C@@H](C)CC` [Peptide A, IRIILRAQGALKI] (H-IRIILRAQGALKI-OH; N-terminus and C-terminus assumed) here?
**A.** 34.1 µM

**Q.** What about the MICs [2] of the same compound?
**A.** 13.7 µM

**Q.** And the MICs [3]?
**A.** 64 µM

**Q.** What about the initial survival rate (E. tarda [4]; one day post injection, Peptide A 1.37 mM, Ampicillin 5.7 mM, 1 μl) of the same compound?
**A.** 85%

**Q.** And the “effect on E. tarda infection / surviving fish” value (E. tarda [4]; two weeks after infection)?
**A.** still higher than the controls

**Q.** What about the MICs [5] of the same compound?
**A.** 21.8 µM

**Q.** What about the adverse effect [6] of the same compound?
**A.** no adverse effect

**Q.** What about the “effect on antibiotic resistant strains” value [7] of the same compound?
**A.** effective on a number of antibiotic resistant strains

**Q.** What about the MICs [8] of the same compound?
**A.** 21.8 µM

**Q.** What about the “MIC for E. coli” value (E. coli) of the same compound?
**A.** 3.4 µM

**Q.** What about the MICs (E. cloacae BAA-1143) of the same compound?
**A.** 21.8 µM

**Q.** What about the “cytotoxic effect (cell viability, MTT)” value [9] of the same compound?
**A.** No obvious toxicity; also recorded: relatively nontoxic

**Q.** And the “RpoE mRNA expression” value (RpoE)?
**A.** significantly induced

**Q.** And the “CpxR mRNA expression” value (CpxR [10]; Peptide A 6.8 μM, 1 hr)?
**A.** significantly reduced

**Q.** And the “CpxR expression induced by ampicillin” value (CpxR [10]; Peptide A+Ampicillin (3.4 μM; 71.5 μM), 1 hour)?
**A.** revert the induction of CpxR expression

**Q.** What about the CpxR expression (CpxR [11]) of the same compound?
**A.** inhibition of CpxR

**Q.** And the medaka survival rate (E. tarda [12])?
**A.** 80%

**Q.** And the “toxicity / antimicrobial activity against bacteria” value [13]?
**A.** demonstrated toxicity against both Gram positive and negative bacteria

**Q.** What about the MICs (Edwardsiella tarda PE210) of the same compound?
**A.** 6.8 µM
